Results on two compounds are retold here after patent US20260091147A1, “METHOD FOR DETECTING INNATE IMMUNE ACTION IN VIVO USING GPR84-PET” (The Board of Trustees of the Leland Standford Junior …, priority 2023, published 2026).

The target of series [1] is T1, GPR84 (Homo sapiens, UniProt Q9NQS5). The experiment in a line: Radiotracer cell binding, hGPR84-HEK-293 vs control HEK-293 cells, with or without GLPG1205 block. The note with it: for fold higher binding to hGPR84-HEK-293 cells vs control cells: 40 min incubation; for reduction of tracer binding in hGPR84-HEK293 cells by GLPG1205: co-incubation with GLPG1205 35 μM (1000× by mass), 40 min. It is filed as cell-based. Also noted: host or cells: HEK-293 cells, lentivirally transduced, puromycin-selected monoclonal line. Here is the method:
GPR84-transduced HEK-293 cells and control HEK-293 cells were plated at a concentration of 3×10^5 cells per well in media (DMEM with 10% FBS and 1% anti-anti) into three 12-well plates 16-24 hr prior to the cell binding assay. Once cells reached ˜90% confluency, the radiotracer was prepared. […] The radiotracer was diluted in DMEM without FBS or antibiotic to yield a 30 mL solution where the amount of activity was 25 μCi in 500 μL. The first 12-well plate was incubated for 20 minutes at 37° C. and 5% CO2 in air while the next was incubated for 40 minutes at the same conditions. Cells were subsequently washed with PBS, trypsinized, resuspended in DMEM+10% FBS, and pipetted into gamma counting tubes at 500 μL volume. Radioactivity levels bound to cells were measured in a gamma counter (Hidex Oy, Helsinki, Finland), and cell counts were recorded using Trypan blue and an automatic cell counter to normalize radioactivity levels to cell count.
At the indicated time points, plates were placed on ice, washed three times with ice-cold phosphate-buffered saline (PBS), and trypsinized (150 μL per well) for 2 min at 37° C. The trypsin was neutralized by adding 600 μL DMEM containing 10% FBS (original cell culture media) to each well. […] Gamma counting was performed to quantitate percentage radiotracer uptake by the cells and decay-corrected radioactivity was determined (Hidex automated gamma counter). Finally, cells in each gamma counting tube were counted by using the Countess cell counter (Life Technologies). Cell binding was expressed in terms of % uptake/million cells.
GPR84-transduced HEK-293 cells and control HEK-293 cells from Creative Biogene were plated at a concentration of 3×10^5 cells per well in media (DMEM with 10% FBS and 1% anti-anti) into a 12-well plate for 16-24 hr. HEK-293 cells were stably transduced via the following process from Creative Biogene: construction of pLVX-CMV-Human-GPR84-PGK-Puro lentiviral expression plasmid, lentivirus production, lentivirus transduction, puromycin selection of polyclonal stable HEK293-Human-GPR84 cells, screening of monoclonal stable HEK293-Human-GPR84 cells via limited dilution, validation using qPCR, then mycoplasma detection by PCR and Lonza kit. Once cells reached ˜90% confluency, the radiotracer was prepared. The radiotracer was diluted in DMEM without FBS or antibiotic to yield a 30 mL solution such that the amount of activity was 50 μCi/mL for ^11C or 2 μCi/mL for ^18F. […] The 12-well plate was incubated for 40 min at 37° C. and 5% CO2 in air. […] Radioactivity levels bound to cells were measured in a gamma counter (Hidex Oy, Helsinki, Finland), and cell counts were recorded using Trypan blue and an automatic cell counter to normalize radioactivity levels to cell count.

Series [2] is described as follows: Dynamic 60 min PET/CT of healthy mice, whole-brain time activity curve. The format is in vivo, mouse. The source says: A transmission scan was acquired to correct for attenuation during image reconstruction. Following PET imaging, mice were transferred to a SOFIE GNEXT PET/CT for CT acquisition. PET/CT data were co-registered and analyzed using Inveon Research Workplace software to generate images and quantify radiotracer uptake in regions of interest (ROIs). A 3D ROI was manually defined for the whole brain using CT data as anatomical reference, then applied to the full dynamic data set to generate a time activity curve (TAC).
The count densities were averaged for all volumes of interest at each time point to obtain a time-activity curve (TAC). The TACs were normalized to injected dose, as measured by a CRC-15 PET dose calibrator (Capintec Inc.), and expressed as % injected dose per gram (% ID/g), assuming 1 g/mL. CT was performed in GNEXT depth of interaction (DOI) dual-layer detector system. Scintica VivoQuant software was used to visualize radiotracer uptake and define the 3D volumes of interest. 3D maximum intensity projection (MIP) PET/CT images were created using IRW software.
On days 15-16 after EAE induction, mice were catheterized and placed on the 4-mouse scanning bed of the Sofie GNEXT PET/CT scanner.

Series [3] addresses T1, GPR84. Kind of series: In vitro autoradiography of human colon sections, active UC vs healthy. It is filed as binding. Also noted: from tissue; host or cells: human colon sections, active ulcerative colitis and matched healthy samples. The note with it: for tracer binding in active UC colon tissue vs matched healthy samples: 5 μm sections; for tracer signal in UC colon tissue after pre-blocking with GLPG1205: 1000× GLPG1205 by mass. Here is the method: To investigate alterations in GPR84 mRNA expression under pro-inflammatory conditions, quantitative polymerase-chain reaction was performed using mouse brain and human monocyte-derived macrophage cells (hMDMs) treated with lipopolysaccharides (LPS) 24 hr prior to RNA extraction. [^11C]GLPG38 and [^18F]MGX-110S were made via [^11C]methylation of the desmethyl precursor and by copper mediated [^18F]fluorination of Bpin precursor respectively. Binding specificities of both tracers were assessed using human GPR84-stably-expressing human embryonic kidney cells (HEK-293) versus control HEK-293 cells. [^11C]GLPG38 binding was also assessed in hMDMs+/−treatment with LPS. Dynamic PET/CT imaging of healthy mice was commenced just prior to injection of [^11C]GLPG38 (100-150 μCi) or [^18F]MGX-110S (60-120 μCi) to determine biodistribution and kinetics. In vitro autoradiography (ARG) of human colon sections (5 μm) was conducted to test the ability of each tracer to detect innate immune activation in active UC.

Where “and” joins values, the source holds several entries; their conditions need not be identical. Equal values may be shown once.

T1 sequence (Q9NQS5 whole entry): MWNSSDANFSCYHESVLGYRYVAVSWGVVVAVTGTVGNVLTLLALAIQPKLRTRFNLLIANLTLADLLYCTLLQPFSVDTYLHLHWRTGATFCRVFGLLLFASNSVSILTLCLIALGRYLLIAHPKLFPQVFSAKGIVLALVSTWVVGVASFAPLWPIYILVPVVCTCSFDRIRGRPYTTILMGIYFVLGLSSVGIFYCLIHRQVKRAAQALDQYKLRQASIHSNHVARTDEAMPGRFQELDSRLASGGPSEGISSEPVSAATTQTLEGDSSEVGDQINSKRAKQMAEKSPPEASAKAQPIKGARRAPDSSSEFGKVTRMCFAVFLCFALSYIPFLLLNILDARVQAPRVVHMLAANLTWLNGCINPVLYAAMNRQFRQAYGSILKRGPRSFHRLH

In the case of `Cc1cc2c(cc1O[11CH3])CCn1c-2c(C)c(OC[C@@H]2COCCO2)cc1=O` [[^11C]GLPG38], on GPR84 [1], the “fold higher binding to hGPR84-HEK-293 cells vs control cells” value is on record as 13.5 fold; the “reduction of tracer binding in hGPR84-HEK293 cells by GLPG1205” value is 90% and > 90%. Besides, the “whole-brain uptake after washout, end of 60 min scan” value in series [2] (healthy mice) is reported as 3.53 % ID/g. Moreover, in series [2] (naive wild-type mice), the “whole-brain uptake at 4 minutes post injection” value is 9.46 % ID/g. Moreover, at GPR84 [3], the “tracer binding in active UC colon tissue vs matched healthy samples” value is recorded as “marked increase of binding” and the “tracer signal in UC colon tissue after pre-blocking with GLPG1205” value is reported as “markedly attenuated”.

With `O=c1nc(OC[C@@H]2COCCO2)cc2n1CCc1cc([18F])ccc1-2` [^18F-MGX-110S], on GPR84 [1], the “fold higher binding to hGPR84-HEK-293 cells vs control cells” value is 33.4 fold and 25 fold; the “reduction of tracer binding in hGPR84-HEK293 cells by GLPG1205” value is given as greater than 90%. For the same compound, in series [2] (naive mice, n=3), the “time of peak brain uptake” value is reported as 0.25 min. Also, on GPR84 [3], the “tracer binding in active UC colon tissue vs matched healthy samples” value was “marked increase of binding” and the “tracer signal in UC colon tissue after pre-blocking with GLPG1205” value was “markedly attenuated”.
